From patent publication US20050118310A1, “Formulations of compounds derived from natural sources and their use with irradiation for food preservation” (priority 2001, published 2005)
Marks after values point to notes of the source that are not given here.

Key:
S. typhi = assay: Effect of carvacrol concentration on survival of S. typhi in ground beef irradiated at 0.5 kGy; type: cell-based, Salmonella typhi (ATCC 19430); conditions: ground beef irradiated at 0.50 kGy; for Increase in Sensitivity: vs 0% carvacrol
Excerpt: (§1) The irradiation treatments of ground beef samples for D10 determination was done using UC-15B irradiator (MDS-Nordion International Inc., Kanata, ON, Canada) equipped with a ^60Co source at a dose rate of 14.42 kGy/h). Irradiation doses used for D10 determination were ranged from 0.1 to 0.6 kGy for E. coli and from 0.50 to 2.0 kGy for S. typhi. Under frozen condition, the irradiation doses ranged from 0.1 to 0.7 kGy for E. coli and from 0.5 to 3.0 kGy for S. typhi. For the determination of the effect of various concentrations of carvacrol on the irradiation sensitivity, samples were irradiated at 0.25 kGy for E. coli and at 0.5 kGy for S. typhi. Irradiation doses used for D10 determination in chicken breast ranged from 0.1 to 0.7 kGy for E. coli and from 0.25 to 2.0 kGy for S. typhi. Samples were analysed immediately after irradiation to determine the microbial count.
(§2) Samples were homogenised for 2 min in sterile peptone water (0.1%) using a Lab-blender 400 stomacher (Laboratory Equipment, London, UK). From this mixture, serial dilutions were prepared and appropriate ones were pour-plated in tryptic soy agar (TSA) (Difco, Laboratories, Detroit, Mich., USA) and incubated at 35° C., 24 hours for the numeration of E. coli and S. typhi.
(§3) The effect of various concentrations of carvacrol in irradiated ground beef was evaluated in order to determine if lower concentrations of carvacrol could also increase the irradiation sensitivity of E. coli and S. typhi in ground beef. For these experiments, sterile ground beef was contaminated with either E. coli or S. typhi to a final concentration of 10^5 CFU/g. Various concentrations of carvacrol ranging from 0 to 2.0% were added to the ground beef samples and transferred in portions of 25 g each to sterile petri plates (60×15 nmu) then stored at 4° C. until irradiation treatment (approximately 15 h).

E. coli = assay: Effect of carvacrol concentration on survival of E. coli in ground beef irradiated at 0.25 kGy; type: cell-based, Escherichia coli (ATCC 25922); conditions: for Increase in Sensitivity: vs 0% carvacrol
Excerpt: as §1, §2, §3

Cc1ccc(C(C)C)cc1O [Carvacrol, carvacrol]
Log CFU/g (S. typhi; carvacrol 0.50%): 3.526 ± 0.061^b Log CFU/g
Increase in Sensitivity (S. typhi; carvacrol 0.50%): 15.4%
Log CFU/g (S. typhi; carvacrol 1.00%): 2.545 ± 0.112^d Log CFU/g
Increase in Sensitivity (S. typhi; carvacrol 1.00%): 39.0%
Log CFU/g (S. typhi; carvacrol 1.75%): 0.000 ± 0.000^g Log CFU/g
Increase in Sensitivity (S. typhi; carvacrol 1.75%): 100%
Log CFU/g (S. typhi; carvacrol 2.00%): 0.000 ± 0.000^g Log CFU/g
Increase in Sensitivity (S. typhi; carvacrol 2.00%): 100%
Log CFU/g (E. coli; carvacrol 0.2%): 2.948 ± 0.088^b Log CFU/g
Increase in Sensitivity (E. coli; carvacrol 0.2%): 4.8%
Log CFU/g (E. coli; carvacrol 0.4%): 2.948 ± 0.068^b Log CFU/g
Increase in Sensitivity (E. coli; carvacrol 0.4%): 4.8%
Log CFU/g (E. coli; carvacrol 0.6%): 2.660 ± 0.037^c Log CFU/g
Increase in Sensitivity (E. coli; carvacrol 0.6%): 14.1%
Log CFU/g (E. coli; carvacrol 0.8%): 1.198 ± 0.065^d Log CFU/g
Increase in Sensitivity (E. coli; carvacrol 0.8%): 61.3%
Log CFU/g (E. coli; carvacrol 1.0%): 0.843 ± 0.000^e Log CFU/g
Increase in Sensitivity (E. coli; carvacrol 1.0%): 72.8%
Log CFU/g (E. coli; carvacrol […]): 0.000 ± 0.000^f Log CFU/g
Increase in Sensitivity (E. coli; carvacrol […]): 100%
